Reference: US7557145B2, “Inhibition of the asexual reproduction of fungi by eugenol and/or derivatives thereof” (Henkel Kommanditgesellschaft auf Aktien (Henkel KGAA), priority 2003, dated 2009)

Tests used:
Assay type in all cases: cell-based
[1] = tested on: Aspergillus niger (DSM 1988); test: Sporulation of Aspergillus niger on wort agar plates containing active component
Procedure: Effect of Eugenol and Eugenol Silicic Acid Esters on the Sporulation of Aspergillus niger
Contamination of the surface of wort agar plates with 100 μl of a germ suspension (10^3 CFU/ml) of Aspergillus niger (DSM 1988). Various quantities of active component (solutions in ethanol, final concentrations in % by weight, see Table) were added to the agar plates beforehand. The plates were incubated for 3 days at 25° C. Sporulation was visually evaluated and the sporulation rate in [%] was determined. […]

[2] = tested on: Aspergillus niger, DSM 1988; test: Sporulation of Aspergillus niger on the surface of an acetate jointing compound
Procedure: Effect on Eugenol on the Sporulation of Aspergillis niger on the Surface of an Acetate Jointing Compound
Commercially available, but preservative-free, one-component silicone jointing compounds curing at room temperature (acetate system, cured 2.2×2.2×0.3 cm pieces of film) were disinfected with 70% EtOH (ethanol) and placed for 24 h in active component solutions with various concentrations (in ethanol, see Table for final concentrations). The test specimens were then re-washed twice with EtOH, rinsed with water (sterile) and dried for 24 h. The test specimens were weighed before and after this treatment and the quantity of active component in the test specimens was thus determined together with the concentration of the active component solution. The test specimens were then placed on wort agar plates and thinly coated with agar in which fungal spores had been incorporated (10^5 CFU/ml Aspergillus niger, DSM 1988). The plates were incubated for 3 days at 25° C. Sporulation was visually evaluated from the test specimens and the sporulation rate in [%] was determined.

[3] = tested on: Aspergillus niger (DSM 1988); test: Sporulation of Aspergillus niger on a filter surface after 2 applications; details: for Sporulation [%]: filter paper treated twice with 50 μl, 3 days at 25° C.
Procedure: Effect of Eugenol on the Sporulation of Aspergillus niger on a Filter Surface After 2 Applications
Filter papers (2×2 cm) were disinfected and treated twice with a 1 hour interval with 50 μl of active-component solutions differing in concentration. The test specimens were then dried. The test specimens were then placed on wort agar plates and the surface of the wort agar plates was contaminated with 100 μl of a germ suspension (10^3 CFU/ml) of Aspergillus niger (DSM 1988). The plates were incubated for 3 days at 25° C. Sporulation was visually evaluated and the sporulation rate in [%] was determined. […] Sporulation was inhibited by increasing concentrations of eugenol and was 90% suppressed at 90 μm.

## C=CCc1ccc(O)c(OC)c1 [eugenol, 4-allyl-2-methoxyphenol]
[1]; concentration of eugenol 4 μm in wort agar, 3 days at 25° C., visually evaluated
  Sporulation [%]: 100%
[1]; concentration of eugenol 40 μm in wort agar, 3 days at 25° C.
  Sporulation [%]: 100%
[1]; concentration of eugenol 65 μm in wort agar, 3 days at 25° C.
  Sporulation [%]: 100%
[1]; concentration of eugenol 90 μm in wort agar, 3 days at 25° C.
  Sporulation [%]: 80%
[1]; concentration of eugenol 110 μm in wort agar, 3 days at 25° C.
  Sporulation [%]: 70%
[1]; concentration of eugenol 220 μm in wort agar, 3 days at 25° C.
  Sporulation [%]: 0%
[1]; concentration of eugenol 330 μm in wort agar, 3 days at 25° C.
  Sporulation [%]: 0%
[1]; concentration of eugenol 650 μm in wort agar, 3 days at 25° C.
  Sporulation [%]: 0%
[1]; wort agar plates, 3 days at 25° C.
  Concentration at which sporulation was completely suppressed: 220 µM
[2]; concentration of eugenol 1.7 μm/g jointing compound, 3 days at 25° C.
  Sporulation [%]: 0%
[2]; concentration of eugenol <1 μm/g jointing compound, 3 days at 25° C.
  Sporulation [%]: 100%
[2]; concentration of eugenol ca. 3 μm/g jointing compound, 3 days at 25° C.
  Sporulation [%]: 0%
[2]; silicone jointing compound (acetate system), 3 days at 25° C.
  Concentration at which sporulation was completely suppressed: 1.7 μm/g jointing compound
[3]; at 90 μm, filter surface after 2 applications
  Sporulation suppressed: 90%
[3]; concentration 0.6 μm
  Sporulation [%]: 100%
[3]; concentration 6 μm
  Sporulation [%]: 100%
[3]; concentration 30 μm
  Sporulation [%]: 100%
[3]; concentration 45 μm
  Sporulation [%]: 100%
[3]; concentration 60 μm
  Sporulation [%]: 100%
[3]; concentration 90 μm
  Sporulation [%]: 10%
[3]; concentration 120 μm
  Sporulation [%]: 10%

## CC(C)=CCCC(C)=CCCC(C)=CCO [farnesol, reference compound]
[1]; comparison test, concentration of farnesol 125 μm
  Sporulation [%]: 50%
[2]; concentration of farnesol 0.4 μm/g jointing compound, 3 days at 25° C.
  Sporulation [%]: 100%
[2]; concentration of farnesol 1.1 μm/g jointing compound, 3 days at 25° C.
  Sporulation [%]: 100%
[2]; concentration of farnesol 17 μm/g jointing compound, 3 days at 25° C.
  Sporulation [%]: 30%
[2]; parallel test series, identical concentrations
  Inhibition of sporulation compared with eugenol: inhibited, but to a far lesser extent compared with identical concentrations of eugenol
[3]; concentration 0.5 μm
  Sporulation [%]: 100%
[3]; concentration 5 μm
  Sporulation [%]: 100%
[3]; concentration 25 μm
  Sporulation [%]: 100%
[3]; concentration 35 μm
  Sporulation [%]: 60%
[3]; concentration 50 μm
  Sporulation [%]: 80%
[3]; concentration 70 μm
  Sporulation [%]: 50%
[3]; concentration 90 μm
  Sporulation [%]: 40%
[3]; second, parallel test series, identical concentrations
  Inhibition of sporulation compared with eugenol: inhibited, but to a lesser extent compared with identical concentrations of eugenol
